{
  "source": "patent US10364360B2",
  "about": "“Surface coating material, coating film, and hydrophilic oil repellent member” (MITSUBISHI MATERIALS CORPORATION, priority 2014, dated 2019)",
  "test": "Solubility of the compound in water",
  "type": "physicochemical",
  "conditions": "room temperature (25° C.)",
  "experimental": "23.5 g of perfluoro(3-dibutylaminopropionic acid) was neutralized with 1.5 g of calcium hydroxide in a methanol/water mixed solution. The precipitated crystals were separated by filtration, and dried at 100° C., whereby 23.5 g of perfluoro(3-dibutylaminopropionic acid) calcium represented by the following Formula (378) was obtained (yield of 97%). The solubility of the present compound in water at room temperature (25° C.) was 2 [g/100 g-H2O].",
  "data": [
    {"smiles": "O=C(O)C(F)(F)C(F)(F)N(C(F)(F)C(F)(F)C(F)(F)C(F)(F)F)C(F)(F)C(F)(F)C(F)(F)C(F)(F)F.[Ca]", "note": "[Synthesis Example 3, perfluoro(3-dibutylaminopropionic acid) calcium]", "values": [
      {"measurement": "solubility of the present compound in water", "value": 2, "unit": "g/100 g-H2O"}
    ]}
  ]
}
